Laboratory results as given in patent US20180244629A1, “Compounds And Compositions For The Treatment Of Cancer” (The Broad Institute, Inc., priority 2013, published 2018).
Like-named read-outs stand apart in the source and are kept apart here.

Columns and labels:
Type in all cases: cell-based
H1563 = H1563 cell line viability (Cell Titer Glo); details: Homo sapiens, NCI-H1563; n = 2; read-out: Potency (EC50) H1563
Procedure: (§1) Compounds as shown were tested against various cells lines in vitro according to the methods described herein. Cells are plated in 384-well format in a total volume of 40 μl. Indicated compound concentrations were added 24 hrs after plating the cells. After 48 hrs cell viability was determined using Cell Titer Glo® Luminescent Cell Viability Assay.

A549 cells = experiment: A549 Cytotoxicity Assay (Cell Titer Glo viability)
Procedure: (§2) A549 Cytotoxicity Assay Protocol. Day 0: A549 cells (ATCC, A549 CCL-185) are grown to 95% confluence in RPMI, 10% FBS/Pen/Strep/L-Glutamine. Day 1: Plate cells (1000 per well) in 40 μl culturing media using Corning 384-well plates (3570), incubate in standard TC conditions (5% CO2, 95% humidity, 37° C.) for 24 h. Day 2: Dilute each concentration of a half-log serial dilution of compound (1 mM-100 nM) 1:200 in culturing media and add […] (50 μl total volume) of that dilution to designated wells (8 replicates per concentration). The final dilution will be 1000×([…]). Day 4: Remove plate from incubator to cool for 20 minutes to room temperature. Add 40 μl of a 25% Promega Cell Titer Glo solution (diluted 1:3 with room temperature PBS) with Thermo combi or multichannel and incubate for 10 min. Read on Perkin-Elmer EnVision with US LUM settings for 0.1 second per well.
A549 Assay Protocol. Day 0: A549 cells (ATCC) are grown in a Triple flask (NUNC) to ˜95% confluence (TrypLE Phenol Red free) and resuspended for dispensing at 25,000 cells/mL of DMEM, 10% FBS/Pen/Strep/L-Glutamine (using the TAP Compact SelecT automated cell culture system). Day 1: Plate cells at 1000 per well in 40 uL media (DMEM/10% FBS/Pen/Strep/L-Glutamine) using Corning 8867BC 384 well plates; incubate in standard TC conditions (5% CO2; 95% humidity, 37° C.) for 24 hours (Compact SelecT). Day 2: Add 100 nL compound per well at dose into 40 uL assay volume using a pin tool (CyBi Well). Pin 100 nL cytotoxic compounds, mitoxantrone (CID 4212) to positive control wells to a final concentration of 10 μM (100 nL 4 mM DMSO stock). Incubate for […] at 37° C. in Liconic incubator, 95% humidity 5% CO2. Day 4: Remove plate from incubator, cool for 15 minutes to room temperature; add 20 μL 50% Promega CellTiterGlo (diluted 1:1 with PBS, pH 7.4) with Thermo Combi. Incubate at room temperature for 5 minutes. Read plates on Perkin-Elmer EnVision with standard luminescence settings for 0.1 sec per well.
as §1
(§3) Known PDE3 inhibitors as shown below were tested against various cells lines in vitro according to the methods described herein. Cells are plated in 384-well format in a total volume of 40 μl. Indicated compound concentrations were added 24 hrs after plating the cells. After 48 hrs cell viability was determined using Cell Titer Glo® Luminescent Cell Viability Assay.

H2122 cells = experiment: H2122 Assay (Cell Titer Glo viability); details: Homo sapiens
Procedure: Selective toxicity in cell line panel. H2122 Assay Protocol Day 0: H2122 cells (ATCC, H2122 CCL-5985) are grown to 95% confluence in RPMI, 10% FBS/Pen/Strep/L-Glutamine. Day 1: Plate cells (750 per well) in 40 μl culturing media using Corning 384-well plates (3570), incubate in standard TC conditions (5% CO2, 95% humidity, 37 degrees C.) for 24 h. Day 2: Dilute each concentration of a half-log serial dilution of compound (1 mM-100 nM) 1:200 in culturing media and add 10 μl (50 μl total volume) of that dilution to designated wells (8 replicates per concentration). The final dilution will be 1000×([…]). Day 4: Remove plate from incubator to cool for 20 minutes to room temperature. Add 40 μl of a 25% Promega Cell Titer Glo solution (diluted 1:3 with room temperature PBS) with Thermo combi or multichannel and incubate for 10 minutes. Read on Perkin-Elmer EnVision with US LUM settings for 0.1 second per well.
as §1

HeLa cells = experiment: HeLa Cytotoxicity Assay (Cell Titer Glo viability)
Procedure: HeLa Cytotoxicity Assay Protocol: Day 0: HeLa cells (ATCC, HeLa CCL-2) are grown to 95% confluence in DMEM, 10% FBS/Pen/Strep/L-Glutamine. Day 1: Plate cells (1000 per well) in 40 μl culturing media using Corning 384-well plates (3570), incubate in standard TC conditions (5% CO2, 95% humidity, 37 degrees C.) for 24 hours. Day 2: Dilute each concentration of a half-log serial dilution of compound (1 mM-100 nM) 1:200 in culturing media and add 10 μl (50 μl total volume) of that dilution to designated wells (8 replicates per concentration). The final dilution will be 1000×(1 μM-100 pM). Day 4: Remove plate from incubator to cool for 20 minutes to room temperature. Add 40 μl of a 25% Promega Cell Titer Glo solution (diluted 1:3 with room temperature PBS) with Thermo combi or multichannel and incubate for 10 minutes. Read on Perkin-Elmer EnVision with US LUM settings for 0.1 second per well.
as §1, §3

COLO741 cells = experiment: COLO741 Assay (Cell Titer Glo viability); details: Homo sapiens, COLO-741, Example 18; Mean ± SD (n = 3); read-out: Potency (EC50 nM) COLO741
Procedure: as §2, with “C0L0741” for “A549 Cytotoxicity”, “C0L0741” for “A549”, “(ECACC, C0L0741 93052621)” for “(ATCC, A549 CCL-185)”, “(1500” for “(1000”, “minutes.” for “min.”
as §1

[1] = Homo sapiens, A549, n = 2, read-out: Potency (EC50) A549
[2] = NCI-H2122, n = 2, read-out: Potency (EC50) H2122
[3] = Homo sapiens, HeLa, n = 2, read-out: Potency (EC50) HeLa
[4] = Homo sapiens, A549, Mean ± SD (n = 3), read-out: Potency (EC50 nM) A549
[5] = Homo sapiens, HeLa, Mean ± SD (n = 3), read-out: Potency (EC50 nM) HeLa
[6] = Mean ± SD (n = 3), read-out: Potency (EC50 nM) HeLa

| SMILES | EC50 (H1563) | EC50 (A549 cells; [1]) | EC50 (A549 cells; [4]) | EC50 (HeLa cells; [5]) | further results |
| --- | --- | --- | --- | --- | --- |
| O=C1CCC(c2ccccc2)=NN1 | > 10 µM | > 10000 nM |  |  |  |
| CC1CC(=O)NN=C1c1ccc(N)cc1 (stereo not shown) | > 10 µM | > 10000 nM |  |  |  |
| C[C@@H]1CC(=O)NN=C1c1ccc(N)cc1 | > 10 µM | > 10000 nM |  |  |  |
| CC1CC(=O)NN=C1c1ccc(N2CCCCC2)c([N+](=O)[O-])c1 (stereo not shown) | 0.003 µM | > 10000 nM |  |  | EC50 (H2122 cells; [2]): 1 nM; EC50 (HeLa cells; [3]): 1 nM |
| CC1CC(=O)NN=C1c1ccc(N2CCOCC2)c([N+](=O)[O-])c1 (stereo not shown) | 0.003 µM | > 10000 nM |  |  |  |
| COc1ccc(CC(=O)N2CCN(c3ccc(C4=NNC(=O)CC4C)cc3[N+](=O)[O-])CC2)cc1 (stereo not shown) | > 10 µM | > 10000 nM |  |  |  |
| CC1CC(=O)NN=C1c1ccc(N)c([N+](=O)[O-])c1 (stereo not shown) | > 10 µM | > 10000 nM |  |  |  |
| CC1CC(=O)NN=C1c1ccc(N(C)C)c([N+](=O)[O-])c1 (stereo not shown) | 0.04 µM | > 10000 nM |  |  |  |
| CC1CC(=O)NN=C1c1ccc(NCCO)c([N+](=O)[O-])c1 (stereo not shown) | 0.04 µM | > 10000 nM |  |  | EC50 (H2122 cells; [2]): 11 nM; EC50 (HeLa cells; [3]): 4 nM |
| CC1CC(=O)NN=C1c1ccc(N)c(N)c1 (stereo not shown) | > 10 µM | > 10000 nM |  |  |  |
| CC1CC(=O)NN=C1c1ccc(/N=C\c2ccccc2[N+](=O)[O-])cc1 (stereo not shown) | > 10 µM | > 10000 nM |  |  |  |
| O=C(O)Cc1n[nH]c(=O)c2ccccc12 | > 10 µM | > 10000 nM |  |  |  |
| CCN(CC)c1ccc(C(=O)Nc2cccc(OC)c2)cc1[N+](=O)[O-] | > 10 µM | > 10000 nM |  |  |  |
| CCN(CC)c1ccc(C#N)cc1[N+](=O)[O-] | > 10 µM | > 10000 nM |  |  |  |
| CCN(CC)c1ccc(C(=O)O)cc1[N+](=O)[O-] | > 10 µM | > 10000 nM |  |  |  |
| CCN(CC)c1ccc(C2=NNC(=O)CC2C)cc1[N+](=O)[O-] (stereo not shown) [drawing 137] |  |  |  |  | EC50 (H2122 cells; NCI-H2122, 48 h, 48 hrs, Cell Titer Glo, read-out: EC50 H2122): 10.3 to 15.6 nM; EC50 (A549 cells; Homo sapiens, A549, 48 hrs, Cell Titer Glo, read-out: EC50 A549): > 10000 nM; EC50 (HeLa cells; Homo sapiens, HeLa, 48 h, Cell Titer Glo, read-out: EC50 HeLa): 5.5 to 8.7 nM |
| CCN1N=C(c2ccc(N(CC)CC)cc2)[C@H](C)CC1=O [drawing 160] |  |  | > 10000 nM | > 1000 nM |  |

| SMILES | EC50 (H1563) | EC50 (A549 cells; [1]) | EC50 (A549 cells; [4]) | EC50 (HeLa cells; [5]) | further results |
| --- | --- | --- | --- | --- | --- |
| C[C@@H]1CC(=O)NN=C1c1ccc(N2CCOCC2)cc1 [drawing 164] |  |  | > 10000 nM | 13 ± 2 nM |  |
| C[C@@H]1CC(=O)NN=C1c1ccc(N2CCOCC2)c(F)c1 [drawing 166] |  |  | > 10000 nM | 1.6 ± 0.2 nM |  |
| CC(=O)Nc1ccc(C2=NNC(=O)CC2C)cc1 (stereo not shown) [drawing 173] |  |  | > 10000 nM | > 1000 nM |  |
| CC(=O)Nc1ccc(C2=NNC(=O)C[C@H]2C)cc1 [drawing 174] |  |  | > 10000 nM | > 1000 nM |  |
| CC(=O)Nc1ccc(C2=NNC(=O)C[C@H]2C)cc1Br [drawing 175] |  |  | > 10000 nM | 21 ± 1 nM |  |
| CC(=O)Nc1ccc(C2=NNC(=O)C[C@H]2C)cc1[N+](=O)[O-] [drawing 176] |  |  | > 10000 nM | 4.9 ± 1.1 nM |  |
| C[C@@H]1CC(=O)NN=C1c1ccc(N2CCCC2=O)cc1 [drawing 182] |  |  | > 10000 nM |  | EC50 (HeLa cells; [6]): 140 ± 50 nM |
| C[C@@H]1CC(=O)NN=C1c1ccc(N2CCCC2=O)cc1 [drawing 183] |  |  |  |  | EC50 (A549 cells; Mean ± SD (n = 3), read-out: Potency (EC50 nM) A549): > 10000 nM; EC50 (HeLa cells; [6]): > 1000 nM |
| C[C@@H]1CC(=O)NN=C1c1ccc(F)c(F)c1 [drawing 190] |  |  | > 10000 nM | 22 ± 5 nM |  |
| C[C@@H]1CC(=O)NN=C1c1ccc(C2CCCCC2)cc1 [drawing 196] |  |  | > 10000 nM | 7.7 ± 1.3 nM |  |
| C[C@@H]1CC(=O)NN=C1c1ccc(-c2cncnc2)cc1 [drawing 197] |  |  | > 10000 nM | 13 ± 2 nM |  |
| Cc1cc(=O)[nH]nc1-c1ccc(N)cc1 [drawing 199] |  |  | > 10000 nM | > 1000 nM |  |
| CCN(CC)c1ccc(-c2n[nH]c(=O)cc2C)cc1 [drawing 200] |  |  | > 10000 nM | > 1000 nM |  |
| CCN(CC)c1ccc(C2=NNC(=O)CC2C)cc1[N+](=O)[O-] (stereo not shown) [drawing 215] |  |  |  |  | EC50 (H2122 cells; NCI-H2122, Example 18, Mean ± SD (n = 3), read-out: Potency (EC50 nM) H2122): 13.7 ± 2.8 nM; EC50 (COLO741 cells): 12 ± 1.3 nM |
| CCN(CC)c1ccc(C2=NNC(=O)CC2C)cc1[N+](=O)[O-] (stereo not shown) [drawing 226] | 0.012 µM | > 10000 nM |  |  | EC50 (H2122 cells; [2]): 12 nM; EC50 (HeLa cells; [3]): 4 nM |
| CN/C(=N\c1ccc(C2=NNC(=O)CC2C)cc1)NC#N (stereo not shown) [drawing 237] | > 10 µM | > 10000 nM |  |  |  |
